In patent US9326513B2, “Fungicidal compositions” (Syngenta Participations AG, priority 2011, dated 2016):
Several values for one entry are separate records, joined by “and”; a condition that tells them apart may be missing. Equal entries are not always repeated.

Columns and labels:
[1] = tested on: Blumeria graminis f. sp. tritici (Erysiphe graminis f. sp. tritici); assay: Blumeria graminis f. sp. tritici / wheat / leaf disc preventative (powdery mildew on wheat); format: in vivo; conditions: foliar, compared to untreated control leaf disks, read-out: disease control
Method in brief: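 Wheat leaf segments (cv. Kanzler) on agar were sprayed with formulated compound in water, inoculated with powdery mildew 1 day later, and kept at 20° C, 60% rh (24 h dark, then 12 h light/12 h dark). Percent disease control versus untreated scored 6-8 days after application; tested at 200 ppm.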

[2] = tested on: Puccinia recondita f. sp. tritici; assay: Puccinia recondita f. sp. tritici / wheat / leaf disc preventative (brown rust); format: in vivo; conditions: foliar, compared to untreated control leaf disks, read-out: disease control
Source text: Puccinia recondita f. sp. tritici/Wheat/Leaf Disc Preventative (Brown Rust) Wheat leaf segments cv. Kanzler were placed on agar in multiwell plates (24-well format) and sprayed with the formulated test compound diluted in water. The leaf disks were inoculated with a spore suspension of the fungus 1 day after application.

[3] = tested on: Puccinia recondita f. sp. tritici; assay: Puccinia recondita f. sp. tritici / wheat / leaf disc curative (brown rust); format: in vivo; conditions: foliar, compared to untreated control leaf disks, read-out: disease control
Experimental: Puccinia recondita f. sp. tritici/Wheat/Leaf Disc Curative (Brown Rust) Wheat leaf segments cv. Kanzler are placed on agar in multiwell plates (24-well format). The leaf segments are inoculated with a spore suspension of the fungus. Plates were stored in darkness at 19° C. and 75% rh. The formulated test compound diluted in water was applied 1 day after inoculation.

[4] = tested on: Monographella nivalis (syn. Microdochium nivale, Fusarium nivale); assay: Monographella nivalis (snow mould, foot rot of cereals), PDB microtiter plate, visual after 72 hrs; format: cell-based; conditions: applied alone
Botrytis cinerea = Botrytis cinerea (gray mould), PDB microtiter plate, visual after 72 hrs; format: cell-based; conditions: alone; for inhibition at 0.00390625 ppm: rate 0.00390625 ppm; for inhibition at 0.0078125 ppm: rate 0.0078125 ppm; for inhibition at 0.015625 ppm: rate 0.015625 ppm; for inhibition at 0.03125 ppm: rate 0.03125 ppm; for inhibition at 0.03125 ppm / inhibition at 0.0625 ppm: read-out: Activity (%); for inhibition at 0.0625 ppm: rate 0.0625 ppm; for inhibition at 0.125 ppm: rate 0.125 ppm; for inhibition at 0.25 ppm: rate 0.25 ppm
Septoria tritici [5] = assay: Septoria tritici (leaf blotch), PDB microtiter plate, visual after 72 hrs; format: cell-based; conditions: Zymoseptoria tritici, single compound; for inhibition at 0.25 ppm: read-out: Activity (%)
[6] = tested on: Mycosphaerella arachidis (y. Cercospora arachidicola); assay: Mycosphaerella arachidis (brown leaf spot of groundnut), PDB microtiter plate, visual after 5-6 days; format: cell-based; conditions: single compound
Sclerotinia sclerotiorum = Sclerotinia sclerotiorum on oilseed rape, preventive treatment; format: in vivo; conditions: solo, 1 day preventive, 11 days after application
Source text: In the following Tables ‘Activity (%)’ means the assessed experimental activity (% disease control in this test when compared to untreated control leaf disks under the same conditions, which show extensive disease development) and “P” is the expected value calculated (expected) activity according to the COLBY formula (see above). The column headed ‘S?’ indicates whether or not synergy was observed, with ‘y’ meaning that synergy was observed.
Sclerotinia sclerotiorum on Oilseed Rape, Preventive Treatment
The compound activity was tested under 1 day preventive conditions. Oilseed rape plants with 3 unfolded leafs were sprayed with a track sprayer and 200 I/ha spray volume with the test compounds, either solo or in tankmix as shown in the table below.
1 day after application the plants were infested with a solution of Sclerotinia sclerotiorum mycelium. The plants were placed under plastic hoods and high humidity conditions in a climate chamber at 14 h day/10 h night cycle and 15° C. Disease infestation was evaluated visually 11 days after application and average activity calculated in relation to disease severity on untreated check.

Sphaerotheca fuliginea = Sphaerotheca fuliginea (powdery mildew) on cucumber, preventive treatment; format: in vivo; conditions: solo, 2 days preventive, 10 days after application
Source text: In the following Tables 'Activity (%)' means the assessed experimental activity (% disease control in this test when compared to untreated control leaf disks under the same conditions, which show extensive disease development) and “P” is the expected value calculated (expected) activity according to the COLBY formula (see above). The column headed 'S?' indicates whether or not synergy was observed, with 'y' meaning that synergy was observed. Sphaerotheca fuliqinea (Powdery Mildew) on Cucumber, Preventive Treatment […] Cucumber plants with unfolded cotyledons were sprayed with a roomsprayer and 40 ml/4 plants spray volume with the test compounds, either solo or in […] shown in the table below. 2 days after application the plants were infested with spores of Sphaerotheca fuliginea.

[7] = tested on: Fusarium graminearum and Fusarium culmorum; format: in vivo; conditions: solo, 200 g a.i./ha; wheat, 1 day preventive, 9 days after application
[8] = tested on: Phakopsora pachyrhizi (triazole tolerant soybeanrust strain); assay: Phakopsora pachyrhizi on soybean, preventive treatment; format: in vivo; conditions: solo, soybean leaf discs, 1 day preventive, 11 days after application
Septoria tritici [9] = assay: Septoria tritici on wheat, preventive treatment; format: in vivo; conditions: solo, wheat Riband, 1 day preventive, 18 days after application

CCN(C)/C=N/c1cc(Br)c(OC(C)c2cc(F)cc(F)c2)nc1C (stereo not shown) [Q.113] gave a pest or weed control at 200 ppm [1] of at least 50%, a pest or weed control at 200 ppm [2] of at least 50% and a pest or weed control at 200 ppm [3] of at least 50%. The inhibition at 0.00390625 ppm ([4]; Monographella nivalis, 0.00390625 ppm) was 0%, the inhibition at 0.0078125 ppm ([4]; Monographella nivalis, 0.0078125 ppm) was 0% and the inhibition at 0.015625 ppm ([4]; Monographella nivalis, 0.015625 ppm) was 0%. The inhibition at 0.03125 ppm ([4]; Monographella nivalis, 0.03125 ppm) was 0%, the inhibition at 0.0625 ppm ([4]; Monographella nivalis, 0.0625 ppm) was 0% and the inhibition at 0.125 ppm ([4]; Monographella nivalis, 0.125 ppm) was 0%. It also gave an inhibition at 0.25 ppm ([4]; Monographella nivalis, 0.25 ppm) of 0%, an inhibition at 2 ppm ([4]; Monographella nivalis, 2 ppm) of 70% and an inhibition at 2 ppm ([4]; Monographella nivalis, rate 2 ppm) of 70%. The “Activity (%)” value ([4]; 0.5 ppm) was 20%, the “Activity (%)” value ([4]; 1 ppm) was 20% and the “Activity (%)” value ([4]; rate 0.125 ppm) was 2%. The “Activity (%)” value ([4]; rate 0.25 ppm) was 2%, the “Activity (%)” value ([4]; rate 0.5 ppm) was 20% and the “Activity (%)” value ([4]; rate 1 ppm) was 20%. It also gave an inhibition at 0.00390625 ppm (Botrytis cinerea; Botrytis cinerea) of 0%, an inhibition at 0.0078125 ppm (Botrytis cinerea; Botrytis cinerea) of 0% and an inhibition at 0.015625 ppm (Botrytis cinerea; Botrytis cinerea) of 0%. The inhibition at 0.03125 ppm (Botrytis cinerea; Botrytis cinerea) was 0%, the inhibition at 0.0625 ppm (Botrytis cinerea; Botrytis cinerea) was 0% and the inhibition at 0.125 ppm (Botrytis cinerea; Botrytis cinerea) was 0%. It also gave an inhibition at 0.25 ppm (Botrytis cinerea; Botrytis cinerea) of 0%, an inhibition at 0.5 ppm (Botrytis cinerea; Botrytis cinerea, rate 0.5 ppm) of 0% and an inhibition at 1 ppm (Botrytis cinerea; Botrytis cinerea, rate 1 ppm) of 0%. The inhibition at 2 ppm (Botrytis cinerea; Botrytis cinerea, rate 2 ppm) was 0%, the inhibition at 0.00390625 ppm (Septoria tritici [5]) was 0% and the inhibition at 0.0078125 ppm (Septoria tritici [5]) was 0%. The inhibition at 0.015625 ppm (Septoria tritici [5]) was 0%, the inhibition at 0.03125 ppm (Septoria tritici [5]) was 0% and the inhibition at 0.0625 ppm (Septoria tritici [5]) was 0%. The inhibition at 0.125 ppm (Septoria tritici [5]) was 0%, the inhibition at 0.25 ppm (Septoria tritici [5]) was 0% and the inhibition at 0.5 ppm (Septoria tritici [5]) was 0%. The inhibition at 1 ppm (Septoria tritici [5]) was 0%, the inhibition at 2 ppm (Septoria tritici [5]) was 0% and the inhibition at 0.0078125 ppm ([6]; Mycosphaerella arachidis, 0.0078125 ppm, read-out: Activity (%)) was 0%. The inhibition at 0.015625 ppm ([6]; Mycosphaerella arachidis, 0.015625 ppm, read-out: Activity (%)) was 0%, the inhibition at 0.25 ppm ([6]; Mycosphaerella arachidis, 0.25 ppm, read-out: Activity (%)) was 70% and the inhibition at 0.5 ppm ([6]; Mycosphaerella arachidis, 0.5 ppm, read-out: Activity (%)) was 70%. For the same compound, the “Activity (%)” value ([6]; 0.125 ppm) was 50%, the Activity (Sclerotinia sclerotiorum; rate 25 ppm) was 2% and the Activity (Sclerotinia sclerotiorum; rate 50 ppm) was 2%. For the same compound, the Activity (Sclerotinia sclerotiorum; rate 100 ppm) was 39%, the Activity (Sphaerotheca fuliginea; rate 0.2 ppm) was 0% and the Activity (Sphaerotheca fuliginea; rate 0.6 ppm) was 0%. For the same compound, the Activity (Sphaerotheca fuliginea; rate 2 ppm) was 0%, the Activity [7] was 23% and the Activity ([8]; rate 0.5 g ai/ha) was 1%. It also gave an Activity ([8]; rate 2 g ai/ha) of 25%, an Activity (Septoria tritici [9]; 1 g a.i./ha) of 1% and an Activity (Septoria tritici [9]; 3 g a.i./ha) of 0%. For the same compound, the Activity (Septoria tritici [9]; 81 g a.i./ha) was 53%.

CCN(C)/C=N/c1cc(Br)c(O[C@H]2CC[C@@H](C(C)C)CC2)nc1C [Q.135] gave a pest or weed control at 200 ppm [1] of at least 50%, a pest or weed control at 200 ppm [2] of at least 50% and a pest or weed control at 200 ppm [3] of at least 50%. It also gave an inhibition at 0.0078125 ppm ([4]; Monographella nivalis, rate 0.0078125 ppm) of 0%, an inhibition at 0.015625 ppm ([4]; Monographella nivalis, rate 0.015625 ppm) of 0% and an inhibition at 0.125 ppm ([4]; Monographella nivalis, rate 0.125 ppm) of 70%. For the same compound, the inhibition at 0.3125 ppm ([4]; Monographella nivalis, rate 0.3125 ppm) was 0%, the inhibition at 0.625 ppm ([4]; Monographella nivalis, rate 0.625 ppm) was 50% and the “Activity (%)” value ([4]; rate 0.0625 ppm) was 20%. The inhibition at 0.00390625 ppm (Botrytis cinerea; Botrytis cinerea) was 0%, the inhibition at 0.0078125 ppm (Botrytis cinerea; Botrytis cinerea) was 0% and the inhibition at 0.015625 ppm (Botrytis cinerea; Botrytis cinerea) was 0%. The inhibition at 0.03125 ppm (Botrytis cinerea; Botrytis cinerea) was 0%, the inhibition at 0.0625 ppm (Botrytis cinerea; Botrytis cinerea) was 0% and the inhibition at 0.125 ppm (Botrytis cinerea; Botrytis cinerea) was 0%. The inhibition at 0.25 ppm (Botrytis cinerea; Botrytis cinerea) was 0%, the inhibition at 2 ppm (Botrytis cinerea; Botrytis cinerea, rate 2 ppm) was 70% and the “Activity (%)” value (Botrytis cinerea; rate 0.5 ppm) was 20%. For the same compound, the “Activity (%)” value (Botrytis cinerea; rate 1 ppm) was 20%, the “Activity (%)” value (Botrytis cinerea; rate 2 ppm) was 50% and the inhibition at 0.00390625 ppm (Septoria tritici [5]) was 0%. For the same compound, the inhibition at 0.0078125 ppm (Septoria tritici [5]) was 0%, the inhibition at 0.015625 ppm (Septoria tritici [5]) was 0% and the inhibition at 0.03125 ppm (Septoria tritici [5]) was 0%. It also gave an inhibition at 0.0625 ppm (Septoria tritici [5]) of 0%, an inhibition at 0.125 ppm (Septoria tritici [5]) of 0% and an inhibition at 0.25 ppm (Septoria tritici [5]) of 0%. For the same compound, the inhibition at 0.5 ppm (Septoria tritici [5]) was 0%, the inhibition at 1 ppm (Septoria tritici [5]) was 0% and the inhibition at 2 ppm (Septoria tritici [5]) was 0%. It also gave an inhibition at 0.00390625 ppm ([6]; Mycosphaerella arachidis, 0.00390625 ppm, read-out: Activity (%)) of 0%, an inhibition at 0.03125 ppm ([6]; Mycosphaerella arachidis, 0.03125 ppm, read-out: Activity (%)) of 50% and an inhibition at 0.0625 ppm ([6]; Mycosphaerella arachidis, 0.0625 ppm, read-out: Activity (%)) of 50%. The inhibition at 0.15625 ppm ([6]; Mycosphaerella arachidis, 0.15625 ppm) was 0%, the “Activity (%)” value ([6]; 0.015625 ppm) was 20% and the “Activity (%)” value ([6]; 0.03125 ppm) was 70%. The “Activity (%)” value ([6]; 0.0625 ppm) was 70%, the Activity (Sclerotinia sclerotiorum; rate 25 ppm) was 0% and the Activity (Sclerotinia sclerotiorum; rate 50 ppm) was 0%. It also gave an Activity (Sclerotinia sclerotiorum; rate 100 ppm) of 15%, an Activity (Sphaerotheca fuliginea; rate 0.2 ppm) of 0% and an Activity (Sphaerotheca fuliginea; rate 0.6 ppm) of 0%. It also gave an Activity (Sphaerotheca fuliginea; rate 2 ppm) of 0%, an Activity [7] of 28% and an Activity ([8]; rate 0.5 g ai/ha) of 13%. The Activity ([8]; rate 2 g ai/ha) was 41%, the Activity (Septoria tritici [9]; 1 g a.i./ha) was 0% and the Activity (Septoria tritici [9]; 3 g a.i./ha) was 0% and 9%. For the same compound, the Activity (Septoria tritici [9]; 9 g a.i./ha) was 33% and 43%, the Activity (Septoria tritici [9]; 27 g a.i./ha) was 52% and 82% and the Activity (Septoria tritici [9]; 81 g a.i./ha) was 70%.
